Test results published in patent US8192962B2, “Processes for detecting toxic substances” (Daikin Industries, Ltd., priority 2001, dated 2012).

Test system: Energy system protein genes
Assay: DNA chip mRNA expression in yeast, energy system protein genes (Table 4)
Format: cell-based, Saccharomyces cerevisiae S288C
In short: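 First, S288C yeast grown in YPD at 25° C. are dosed in log phase with one toxicant (growth-inhibiting, not lethal) for 2 h. Next, total RNA is extracted and poly(A) mRNA isolated and reverse-transcribed with Cy3/Cy5-dUTP. Finally, whole-genome chip fluorescence is read relative to unexposed cells.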

Q: How did the “The level of expressed mRNA in the presence of chemical substance/The level of expressed mRNA in the absence of chemical substance” value (yeast gene YJL121C, cells incubated two hours with the chemical substance) turn out when N#Cc1c(Cl)c(Cl)c(Cl)c(C#N)c1Cl [(9), 2,4,5,6-tetrachloro-1,3-benzenedicarbonitrile] was run?
A: Its value is 0.1.

Q: And the “The level of expressed mRNA in the presence of chemical substance/The level of expressed mRNA in the absence of chemical substance” value (yeast gene YJL166W, cells incubated two hours with the chemical substance)?
A: Its value is 1.3.

Q: What about the “The level of expressed mRNA in the presence of chemical substance/The level of expressed mRNA in the absence of chemical substance” value (yeast gene YJL216C, cells incubated two hours with the chemical substance) of the same compound?
A: The value was 1.5.

Q: And the “The level of expressed mRNA in the presence of chemical substance/The level of expressed mRNA in the absence of chemical substance” value (yeast gene YJR009C)?
A: The value was 1.1.

Q: What about the “The level of expressed mRNA in the presence of chemical substance/The level of expressed mRNA in the absence of chemical substance” value (yeast gene YJR048W) of the same compound?
A: The value was 0.5.

Q: What about the “The level of expressed mRNA in the presence of chemical substance/The level of expressed mRNA in the absence of chemical substance” value (yeast gene YJR121W, cells incubated two hours with the chemical substance) of the same compound?
A: Its value is 0.8.

Q: What about the “The level of expressed mRNA in the presence of chemical substance/The level of expressed mRNA in the absence of chemical substance” value (yeast gene YJR155W) of the same compound?
A: The value was 38.2.

Q: And the “The level of expressed mRNA in the presence of chemical substance/The level of expressed mRNA in the absence of chemical substance” value (yeast gene YKL016C, cells incubated two hours with the chemical substance)?
A: Its value is 1.3.

Q: What about the “The level of expressed mRNA in the presence of chemical substance/The level of expressed mRNA in the absence of chemical substance” value (yeast gene YKL060C, cells incubated two hours with the chemical substance) of the same compound?
A: The value was 0.3.

Q: And the “The level of expressed mRNA in the presence of chemical substance/The level of expressed mRNA in the absence of chemical substance” value (yeast gene YKL141W, cells incubated two hours with the chemical substance)?
A: Its value is 0.8.

Q: And the “The level of expressed mRNA in the presence of chemical substance/The level of expressed mRNA in the absence of chemical substance” value (yeast gene YKL148C, cells incubated two hours with the chemical substance)?
A: Its value is 1.7.

Q: What about the “The level of expressed mRNA in the presence of chemical substance/The level of expressed mRNA in the absence of chemical substance” value (yeast gene YKL150W) of the same compound?
A: The value was 1.1.

Q: And the “The level of expressed mRNA in the presence of chemical substance/The level of expressed mRNA in the absence of chemical substance” value (yeast gene YKR009C, cells incubated two hours with the chemical substance)?
A: The value was 2.4.

Q: What about the “The level of expressed mRNA in the presence of chemical substance/The level of expressed mRNA in the absence of chemical substance” value (yeast gene YKR058W, cells incubated two hours with the chemical substance, 25° C., YPD medium) of the same compound?
A: Its value is 1.3.

Q: What about the “The level of expressed mRNA in the presence of chemical substance/The level of expressed mRNA in the absence of chemical substance” value (yeast gene YKR097W) of the same compound?
A: Its value is 1.9.

Q: What about the “The level of expressed mRNA in the presence of chemical substance/The level of expressed mRNA in the absence of chemical substance” value (yeast gene YLL041C, cells incubated two hours with the chemical substance) of the same compound?
A: Its value is 0.7.

Q: And the “The level of expressed mRNA in the presence of chemical substance/The level of expressed mRNA in the absence of chemical substance” value (yeast gene YLR038C, cells incubated two hours with the chemical substance)?
A: Its value is 0.4.

Q: And the “The level of expressed mRNA in the presence of chemical substance/The level of expressed mRNA in the absence of chemical substance” value (yeast gene YLR134W, cells incubated two hours with the chemical substance)?
A: The value was 0.1.

Q: What about the “The level of expressed mRNA in the presence of chemical substance/The level of expressed mRNA in the absence of chemical substance” value (yeast gene YLR258W, cells incubated two hours with the chemical substance) of the same compound?
A: Its value is 0.8.

Q: What about the “The level of expressed mRNA in the presence of chemical substance/The level of expressed mRNA in the absence of chemical substance” value (yeast gene YLR284C, cells incubated two hours with the chemical substance) of the same compound?
A: The value was 0.9.

Q: What about the “The level of expressed mRNA in the presence of chemical substance/The level of expressed mRNA in the absence of chemical substance” value (yeast gene YLR295C, cells incubated two hours with the chemical substance, 25° C., YPD medium) of the same compound?
A: The value was 1.4.

Q: And the “The level of expressed mRNA in the presence of chemical substance/The level of expressed mRNA in the absence of chemical substance” value (yeast gene YLR304C, cells incubated two hours with the chemical substance)?
A: The value was 0.1.

Q: What about the “The level of expressed mRNA in the presence of chemical substance/The level of expressed mRNA in the absence of chemical substance” value (yeast gene YLR345W) of the same compound?
A: The value was 4.5.

Q: What about the “The level of expressed mRNA in the presence of chemical substance/The level of expressed mRNA in the absence of chemical substance” value (yeast gene YLR354C, cells incubated two hours with the chemical substance) of the same compound?
A: The value was 0.4.

Q: And the “The level of expressed mRNA in the presence of chemical substance/The level of expressed mRNA in the absence of chemical substance” value (yeast gene YLR377C, cells incubated two hours with the chemical substance)?
A: The value was 1.8.

Q: And the “The level of expressed mRNA in the presence of chemical substance/The level of expressed mRNA in the absence of chemical substance” value (yeast gene YLR395C, cells incubated two hours with the chemical substance)?
A: The value was 1.0.

Q: And the “The level of expressed mRNA in the presence of chemical substance/The level of expressed mRNA in the absence of chemical substance” value (yeast gene YML087C)?
A: The value was 1.9.

Q: And the “The level of expressed mRNA in the presence of chemical substance/The level of expressed mRNA in the absence of chemical substance” value (yeast gene YML120C, cells incubated two hours with the chemical substance)?
A: Its value is 1.3.

Q: And the “The level of expressed mRNA in the presence of chemical substance/The level of expressed mRNA in the absence of chemical substance” value (yeast gene YML129C, cells incubated two hours with the chemical substance)?
A: Its value is 1.4.

Q: And the “The level of expressed mRNA in the presence of chemical substance/The level of expressed mRNA in the absence of chemical substance” value (yeast gene YMR073C, cells incubated two hours with the chemical substance)?
A: The value was 1.2.

Q: And the “The level of expressed mRNA in the presence of chemical substance/The level of expressed mRNA in the absence of chemical substance” value (yeast gene YMR118C)?
A: Its value is 9.3.

Q: And the “The level of expressed mRNA in the presence of chemical substance/The level of expressed mRNA in the absence of chemical substance” value (yeast gene YMR205C, cells incubated two hours with the chemical substance)?
A: Its value is 0.3.

Q: What about the “The level of expressed mRNA in the presence of chemical substance/The level of expressed mRNA in the absence of chemical substance” value (yeast gene YMR261C, cells incubated two hours with the chemical substance) of the same compound?
A: Its value is 1.6.

Q: And the “The level of expressed mRNA in the presence of chemical substance/The level of expressed mRNA in the absence of chemical substance” value (yeast gene YMR267W, cells incubated two hours with the chemical substance, 25° C., YPD medium)?
A: The value was 0.4.

Q: What about the “The level of expressed mRNA in the presence of chemical substance/The level of expressed mRNA in the absence of chemical substance” value (yeast gene YMR323W, cells incubated two hours with the chemical substance) of the same compound?
A: The value was 0.5.

Q: And the “The level of expressed mRNA in the presence of chemical substance/The level of expressed mRNA in the absence of chemical substance” value (yeast gene YNL071W)?
A: Its value is 1.1.

Q: And the “The level of expressed mRNA in the presence of chemical substance/The level of expressed mRNA in the absence of chemical substance” value (yeast gene YNL202W, cells incubated two hours with the chemical substance)?
A: Its value is 1.3.

Q: And the “The level of expressed mRNA in the presence of chemical substance/The level of expressed mRNA in the absence of chemical substance” value (yeast gene YNL241C)?
A: Its value is 3.4.

Q: What about the “The level of expressed mRNA in the presence of chemical substance/The level of expressed mRNA in the absence of chemical substance” value (yeast gene YNL331C) of the same compound?
A: The value was 42.6.

Q: What about the “The level of expressed mRNA in the presence of chemical substance/The level of expressed mRNA in the absence of chemical substance” value (yeast gene YOL086C, cells incubated two hours with the chemical substance) of the same compound?
A: Its value is 0.1.

Q: What about the “The level of expressed mRNA in the presence of chemical substance/The level of expressed mRNA in the absence of chemical substance” value (yeast gene YOL165C) of the same compound?
A: The value was 46.9.

Q: And the “The level of expressed mRNA in the presence of chemical substance/The level of expressed mRNA in the absence of chemical substance” value (yeast gene YOR142W, cells incubated two hours with the chemical substance)?
A: Its value is 1.1.

Q: And the “The level of expressed mRNA in the presence of chemical substance/The level of expressed mRNA in the absence of chemical substance” value (yeast gene YOR178C, cells incubated two hours with the chemical substance)?
A: Its value is 0.2.

Q: And the “The level of expressed mRNA in the presence of chemical substance/The level of expressed mRNA in the absence of chemical substance” value (yeast gene YOR388C, cells incubated two hours with the chemical substance)?
A: Its value is 0.1.

Q: What about the “The level of expressed mRNA in the presence of chemical substance/The level of expressed mRNA in the absence of chemical substance” value (yeast gene YPL031C, cells incubated two hours with the chemical substance) of the same compound?
A: The value was 5.7.

Q: And the “The level of expressed mRNA in the presence of chemical substance/The level of expressed mRNA in the absence of chemical substance” value (yeast gene YPL061W, cells incubated two hours with the chemical substance)?
A: Its value is 1.3.

Q: What about the “The level of expressed mRNA in the presence of chemical substance/The level of expressed mRNA in the absence of chemical substance” value (yeast gene YPL088W) of the same compound?
A: Its value is 0.6.

Q: And the “The level of expressed mRNA in the presence of chemical substance/The level of expressed mRNA in the absence of chemical substance” value (yeast gene YPL171C)?
A: The value was 60.0.

Q: And the “The level of expressed mRNA in the presence of chemical substance/The level of expressed mRNA in the absence of chemical substance” value (yeast gene YPL240C)?
A: The value was 3.5.

Q: What about the “The level of expressed mRNA in the presence of chemical substance/The level of expressed mRNA in the absence of chemical substance” value (yeast gene YPL262W, cells incubated two hours with the chemical substance) of the same compound?
A: The value was 1.4.

Q: What about the “The level of expressed mRNA in the presence of chemical substance/The level of expressed mRNA in the absence of chemical substance” value (yeast gene YPL275W, cells incubated two hours with the chemical substance) of the same compound?
A: The value was 0.2.

Q: And the “The level of expressed mRNA in the presence of chemical substance/The level of expressed mRNA in the absence of chemical substance” value (yeast gene YPR048W, cells incubated two hours with the chemical substance)?
A: Its value is 4.0.

Q: And the “The level of expressed mRNA in the presence of chemical substance/The level of expressed mRNA in the absence of chemical substance” value (yeast gene YPR184W, cells incubated two hours with the chemical substance)?
A: The value was 1.9.
